Results on seven molecules are retold here after PMC3842914, “Meleagrin, a New FabI Inhibitor from Penicillium chryosogenum with at Least One Additional Mode of Action” (PLoS ONE, 2013).

One assay addresses T1, E. coli FabI (Escherichia coli, UniProt P0AEK4).
T1 construct: made in house
As to the kind of experiment: E. coli FabI enzyme assay (NADH as cofactor). In kind it is biochemical. The text has this:
(§1) S. aureus FabI and E. coli FabI enzymes were cloned, overexpressed, and purified as described previously. The wild-type fabK gene was amplified by PCR from genomic DNA obtained from Streptococcus pneumoniae KCTC 5412 by using the primers 5′-[…]-3′ and 5′-[…]-3′, which contained NdeI and XhoI restriction sites, respectively. After the DNA sequence was confirmed, the gene was cloned into the pET22b vector (Novagen, Gibbstown, NJ, USA). The construct was transformed into E. coli BL21 (DE3) for expression following induction with isopropylthiogalactoside. The C-terminal His-tagged protein was purified as described previously. Assays were conducted in half-area, 96-well microtiter plates. The compounds were dissolved in DMSO and evaluated in 100-μL assay mixtures containing components specific for each enzyme (see below). Reduction of the trans-2-octenoyl N-acetylcysteamine (t-o-NAC thioester) substrate analog was measured spectrophotometrically following the utilization of NADH or NADPH at 340 nm at 30°C for the linear period of the assay. S. aureus FabI assays contained 50 mM sodium acetate (pH 6.5), 200 μM t-o-NAC thioester, 200 μM NADPH, and 150 nM S. aureus FabI.
(§2) NADH was used as a cofactor rather than NADPH for the E. coli FabI assay. Substrate concentrations used for the Lineweaver–Burk plot were 100, 200, 300, and 400 μM, whereas the concentrations of the cofactor were 100, 200, 400, and 600 μM. The rate of decrease in the amount of NADPH in each reaction was measured with a microtiter enzyme-linked immunosorbent assay (ELISA) reader by using the SOFTmax PRO software (Molecular Devices, Sunnyvale, CA, USA). The inhibitory activity was calculated according to the following formula: % of inhibition = 100× [1− (rate in the presence of compound/rate in the untreated control)]. IC50 values were calculated by fitting the data to a sigmoid equation. An equal volume of DMSO solvent was used for the untreated control. FabK assays contained 100 mM sodium acetate (pH 6.5), 2% glycerol, 200 mM NH4Cl, 50 µM t-o-NAC thioester, 200 µM NADH, and 150 nM S. pneumoniae FabK.

The target in another assay is T2, S. pneumoniae FabK (Streptococcus pneumoniae, UniProt Q9FBC5).
T2 sequence (Q9FBC5 1-324): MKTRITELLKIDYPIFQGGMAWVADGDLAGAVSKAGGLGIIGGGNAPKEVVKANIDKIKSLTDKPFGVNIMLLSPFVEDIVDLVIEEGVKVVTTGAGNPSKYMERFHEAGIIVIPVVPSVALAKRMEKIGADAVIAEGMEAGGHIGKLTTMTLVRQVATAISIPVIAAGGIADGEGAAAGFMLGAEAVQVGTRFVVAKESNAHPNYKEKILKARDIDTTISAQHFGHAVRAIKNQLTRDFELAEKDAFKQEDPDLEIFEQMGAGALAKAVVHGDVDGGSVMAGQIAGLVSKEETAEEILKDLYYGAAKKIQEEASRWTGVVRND
As to the kind of experiment: S. pneumoniae FabK enzyme assay. In kind it is biochemical.
Source text: as §1, §2

The next assay relates to E. coli KCTC 1924. Kind of assay: MIC by broth microdilution, E. coli KCTC 1924. In kind it is cell-based. As to conditions: Escherichia coli. Here is the method: (§3) Whole-cell antimicrobial activity was determined by broth microdilution as described previously. The test strains except for S. pneumoniae were grown to mid-log phase in Mueller–Hinton broth and diluted 1,000-fold in the same medium. Cells (10^5/mL) were inoculated into Mueller–Hinton broth and dispensed at 0.2 mL/well into a 96-well microtiter plate. S. pneumoniae was grown in tryptic soy broth supplemented with 5% sheep blood. MICs were determined in triplicate by serial 2-fold dilutions of test compounds. […] Bacterial growth was determined by measuring the absorption at 650 nm by using a microtiter ELISA reader.

The target of another assay is T3, S. aureus FabI (Staphylococcus aureus, UniProt Q6GI75).
T3 construct: made in house
T3 sequence (Q6GI75 1-256): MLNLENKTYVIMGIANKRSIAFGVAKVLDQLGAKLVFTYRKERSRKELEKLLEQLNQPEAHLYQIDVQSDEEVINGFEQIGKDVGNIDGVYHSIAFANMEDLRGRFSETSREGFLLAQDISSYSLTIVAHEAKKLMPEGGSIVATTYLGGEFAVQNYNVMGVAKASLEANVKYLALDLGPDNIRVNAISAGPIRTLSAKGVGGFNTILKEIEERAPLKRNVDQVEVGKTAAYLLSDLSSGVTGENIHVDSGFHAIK
Kind of assay: Fluorescence quenching assay (direct binding). As to conditions: increasing amounts of compound; FabI fluorescence at 307 nm. Here is the method:
Fluorescence spectra were measured using a SHIMADZU fluorescence spectrophotometer (model RF-5310PC). […] Protein quenching was monitored at 25°C by using 5-nm excitation and 5-nm emission wavelength. The excitation wavelength was 280 nm, and the emission spectra were measured between 290 and 430 nm.

The next assay deals with S. aureus RN4220 (pE194). Kind of assay: Overexpression assay, MIC for vector-containing S. aureus RN4220 (pE194). In kind it is cell-based. As to conditions: Staphylococcus aureus, read-out: MIC S. aureus (pE194). Here is the method: as §3
(§4) An overexpression assay using S. aureus RN4220, S. aureus RN4220 (pE194), and S. aureus RN4220 (pE194-fabI) was conducted to perform target validation of FabI inhibitors as described previously. Additionally, both fabI- and fabK-overexpressing E. coli were constructed to test a multitarget effect of the compounds. The wild-type fabI gene from the genomic DNA of E. coli W3110 was amplified by PCR by using the primers 5′-[…]-3′ and 5′-[…]-3′. The wild-type fabK gene from the genomic DNA of S. pneumoniae KCTC 5412 was amplified by PCR by using the primers 5′-[…]-3′ and 5′-[…] […]-3′. The resulting products were cloned into the pBAD-TOPO TA expression vector (Invitrogen, Carlsbad, CA, USA) to yield the pBAD-fabI and pBAD-fabK recombinant plasmids, which placed the expression of the genes fabI and fabK, respectively, under the control of the arabinose promoter. Recombinant pBAD-fabI and pBAD-fabK were then introduced into the pump-negative (tolC) E. coli EW1b via electroporation to generate E. coli EW1b (pBAD-fabI) and E. coli EW1b (pBAD-fabK), respectively.

Assay [1] concerns S. aureus RN4220 (pE194-fabI). Kind of assay: Overexpression assay, MIC for fabI-overexpressing S. aureus RN4220 (pE194-fabI). In kind it is cell-based. As to conditions: Staphylococcus aureus, read-out: MIC S. aureus (pE194-fabI). The method, then:
as §3, §4

Another assay relates to S. aureus KCTC 1916. As to the kind of experiment: MIC, S. aureus KCTC 1916. In kind it is cell-based. As to conditions: Staphylococcus aureus, KCTC1916. Here is the method: as §3
Another assay has as its system E. coli EW1b. As to the kind of experiment: Overexpression assay, MIC for pump-negative (tolC) E. coli EW1b. In kind it is cell-based. As to conditions: Escherichia coli. Here is the method: as §3, §4
The test system of the next assay is E. coli EW1b(pBAD-fabK). As to the kind of experiment: Overexpression assay, MIC for fabK-overexpressing E. coli EW1b (pBAD-fabK). In kind it is cell-based. As to conditions: Escherichia coli. The method, then:
as §3, §4

The mark [2] stands for this setting: KCTC1924, read-out: MIC E. coli.
[3] abbreviates: read-out: MIC E. coli EW1b (+) Ara.
[4] abbreviates: read-out: MIC E. coli EW1b (−) Ara.
The mark [5] stands for this setting: read-out: MIC E. coli EW1b(pBAD-fabK) (+) Ara.
Setting [6] is: read-out: MIC E. coli EW1b(pBAD-fabK) (−) Ara.
Setting [7] is: KCTC1924, E. coli KCTC 1924, read-out: MIC E. coli.
The mark [8] stands for this setting: S. pneumoniae FabK, read-out: IC50 spFabK.

≈ marks a conversion by molar mass, not a printed value. Where two headings read alike, the source gives them in different places.

T1 sequence (P0AEK4 whole entry): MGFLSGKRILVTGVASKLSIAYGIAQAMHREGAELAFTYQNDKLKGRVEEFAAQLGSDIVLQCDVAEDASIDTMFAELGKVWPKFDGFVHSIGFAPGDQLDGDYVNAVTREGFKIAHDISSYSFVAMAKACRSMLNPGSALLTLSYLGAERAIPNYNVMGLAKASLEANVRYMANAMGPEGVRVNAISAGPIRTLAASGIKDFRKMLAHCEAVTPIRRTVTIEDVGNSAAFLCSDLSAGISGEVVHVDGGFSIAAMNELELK

For the molecule `C=CC(C)(C)C12C=C(O)C(=O)N3/C(=C/c4cnc[nH]4)C(=O)NC31N(OC)c1ccccc12` (stereo not shown) [Compound 1, meleagrin], the IC50 – broadly, the concentration needed to halve the response being measured – was 33.2 µM against E. coli FabI and greater than 200 µM against S. pneumoniae FabK. Further, the MIC – broadly, the smallest concentration in the dilution series that meets the test's criterion for growth inhibition – in the assay on E. coli KCTC 1924 (setting [2]) amounted to 32 µg/mL (≈ 73.8 µM); with S. aureus RN4220 (pE194) it was 64 µg/mL (≈ 148 µM); in assay [1], 256 µg/mL (≈ 591 µM); against S. aureus KCTC 1916, 32 µg/mL (≈ 73.8 µM); in the assay with E. coli EW1b (setting [3]) it was 32 µg/mL (≈ 73.8 µM); in the assay with E. coli EW1b (setting [4]) it was 32 µg/mL (≈ 73.8 µM). For the same molecule, the MIC in the assay with E. coli EW1b(pBAD-fabK) (setting [5]) and in the assay on E. coli EW1b(pBAD-fabK) (setting [6]) was 32 µg/mL (≈ 73.8 µM) throughout. Besides, on S. aureus FabI, the “Fluorescence quenching of S. aureus FabI” value is recorded as “same pattern as compound 5”.
Consider `C=CC(C)(C)C12C=C(OC)C(=O)N3/C(=C/c4cnc[nH]4)C(=O)NC31N(OC)c1ccccc12` (stereo not shown) [Compound 3, oxaline], for which the IC50 is 38.8 µM at E. coli FabI and greater than 200 µM against S. pneumoniae FabK. Moreover, the MIC in the assay on E. coli KCTC 1924 (setting [7]) amounted to 32 µg/mL (≈ 71.5 µM); in the assay with S. aureus RN4220 (pE194), 64 µg/mL (≈ 143 µM); in assay [1], 256 µg/mL (≈ 572 µM).
Consider `C=CC(C)(C)C12C=C(O)C(=O)N3/C(=C/c4cnc[nH]4)C(=O)N(C)C31N(OC)c1ccccc12` (stereo not shown) [Compound 4, N^14-methylmeleagrin], for which the IC50 was 33.1 µM against E. coli FabI and greater than 200 µM on S. pneumoniae FabK. Moreover, the MIC turned out to be 32 µg/mL (≈ 71.5 µM) in the assay on E. coli KCTC 1924 (setting [2]), 64 µg/mL (≈ 143 µM) in the assay on S. aureus RN4220 (pE194) and 256 µg/mL (≈ 572 µM) in [1].
On to `C=CC(C)(C)C12C=C(OC)C(=O)N3/C(=C/c4cnc[nH]4)C(=O)N(C)C31N(OC)c1ccccc12` (stereo not shown) [Compound 5, O,N^14-dimethylmeleagrin], for which the IC50 was 15.6 µM on E. coli FabI and greater than 200 µM on S. pneumoniae FabK (setting [8]). For the same molecule, the MIC in the assay with E. coli KCTC 1924 (setting [7]) came out at 8 µg/mL (≈ 17.3 µM); in the assay on S. aureus RN4220 (pE194), 16 µg/mL (≈ 34.7 µM); in [1], 128 µg/mL (≈ 277 µM); with S. aureus KCTC 1916 (S. aureus KCTC 1916, read-out: MIC), 16 µg/mL (≈ 34.7 µM); in the assay with E. coli EW1b (setting [3]), 16 µg/mL (≈ 34.7 µM); with E. coli EW1b (setting [4]) it was 16 µg/mL (≈ 34.7 µM). In addition, the MIC in the assay on E. coli EW1b(pBAD-fabK) (setting [5]) and with E. coli EW1b(pBAD-fabK) (setting [6]) was 16 µg/mL (≈ 34.7 µM) each time. The “Fluorescence quenching of S. aureus FabI” value at S. aureus FabI is “fluorescence intensity decreased gradually”.
Turning to `C=CC(C)(C)C12C=C(OC)C(=O)N3/C(=C/c4cnc[nH]4)C(=O)N(C)C31Nc1ccccc12` (stereo not shown) [Compound 6, O,N^14-dimethylglandicolin], the IC50 against E. coli FabI was 15.4 µM; on S. pneumoniae FabK, greater than 200 µM. For the same molecule, the minimum inhibitory concentration (MIC) in the assay on E. coli KCTC 1924 (setting [2]) came to 8 µg/mL (≈ 18.5 µM); in the assay with S. aureus RN4220 (pE194), 16 µg/mL (≈ 37.1 µM); in assay [1], 128 µg/mL (≈ 297 µM).
With `C=CC(C)(C)C12C=C(O)C(=O)N3/C(=C/c4cnc[nH]4)C(=O)NC31Nc1c(Br)cccc12` (stereo not shown) [Compound 7], the IC50 at E. coli FabI and at S. pneumoniae FabK (setting [8]) was greater than 200 µM throughout. Besides, in the assay with E. coli KCTC 1924 (setting [7]), the MIC was greater than 128 µg/mL. The “Fluorescence quenching of S. aureus FabI” value at S. aureus FabI is recorded as “did not exhibit such an effect”.
On to `Oc1cc(Cl)ccc1Oc1ccc(Cl)cc1Cl` [Triclosan, reference compound], for which, at S. pneumoniae FabK, the IC50 is greater than 200 µM. The MIC came to 0.02 µg/mL (≈ 0.0691 µM) in the assay on E. coli KCTC 1924 (KCTC1924, 24 h, read-out: MIC E. coli); 0.01 µg/mL (≈ 0.0345 µM) in the assay with E. coli KCTC 1924 (setting [2]); 0.01 µg/mL (≈ 0.0345 µM) with S. aureus RN4220 (pE194); 1.6 µg/mL (≈ 5.53 µM) in [1]; 0.01 µg/mL (≈ 0.0345 µM) against S. aureus KCTC 1916; 0.002 µg/mL (≈ 0.00691 µM) in the assay with E. coli EW1b (setting [3]). The results for the MIC with E. coli EW1b (setting [4]), with E. coli EW1b(pBAD-fabK) (setting [5]) and in the assay with E. coli EW1b(pBAD-fabK) (setting [6]) were 0.002 µg/mL (≈ 0.00691 µM), greater than 0.08 µg/mL and 0.002 µg/mL (≈ 0.00691 µM), respectively. The “Fluorescence quenching of S. aureus FabI” value at S. aureus FabI was “resulted in fluorescence quenching”.
